# Reference: EPA's ToxValDB 9.5 (doi:10.2903/j.efsa.2008.168r)
# How the values were obtained:
# Daphnia magna = conditions: chronic/long-term; duration: 21 days; reproduction
# Bibionidae = conditions: chronic/long-term; duration: 26 days
# Oryctolagus sp. = conditions: reproduction developmental; body weight
# Coturnix japonica = conditions: acute, oral, mortality
# Pimephales promelas = conditions: chronic/long-term; duration: 32 days
# Oncorhynchus mykiss = conditions: acute; duration: 96 hours; mortality
# Mus musculus = conditions: chronic; duration: 2 years; body weight
# Folsomia candida = conditions: chronic/long-term
# Anatidae = conditions: oral, mortality
# Apis mellifera = conditions: acute; duration: 48 hours; oral; unspecified; mortality
# Canidae = conditions: chronic; duration: 1 years; oral; Dog Other; body weight
# Aphidius rhopalosiphi = assay: LR50; higher = less toxic; conditions: not reported; mortality
structure (smiles),measurement,setting,value
Nc1nc(N)nc(NC2CC2)n1 [Cyromazine],NOEC,Daphnia magna,0.31 mg/L
same,NOEC,Bibionidae,0.025 mg/L
same,NOAEL,Oryctolagus sp.,10 mg/kg-day
same,LC50,"Colinus virginianus; acute, oral, diet, mortality",> 1370 mg/kg-day
same,LD50,"Colinus virginianus; acute, oral, mortality",1780 mg/kg
same,NOEL,Colinus virginianus; reproduction developmental,110 mg/kg-day
same,LD50,"Anas platyrhynchos; acute, oral, unspecified, mortality",> 2510 mg/kg
same,NOEL,Anas platyrhynchos; reproductive,38.3 mg/kg-day
same,LC50,"Anas platyrhynchos; short-term, oral, feed, mortality",> 526 mg/kg-day
same,LC50,Coturnix japonica; diet,> 683 mg/kg-day
same,LD50,Coturnix japonica,2340 mg/kg
same,LC50,"Tagia sp.; acute, duration: 14 days, mortality",> 1000 mg/kg
same,NOEC,"Tagia sp.; chronic/long-term, duration: 56 days, reproduction",333 mg/kg
same,NOEC,Pimephales promelas,14 mg/L
same,LC50,Oncorhynchus mykiss,> 100 µg/mL
same,NOAEL,Mus musculus,6.5 mg/kg-day
same,LD50,"Rattus norvegicus; acute, mortality",3390 mg/kg
same,NOAEL,"Rattus norvegicus; reproduction developmental, reproduction",30 mg/kg-day
same,NOEC,Folsomia candida,9.6 mg/kg
same,LD50,"Anatidae; acute, unspecified",> 1000 mg/kg
same,LC50,"Anatidae; short-term, feed",> 1120 mg/kg-day
same,LD50,Apis mellifera,186 µg/piece
same,NOAEL,Canidae,5.74 mg/kg-day
same,LR50,Aphidius rhopalosiphi,≥ 891 g/ha
